Test results from publication PMC5890244, “Stimulus dependent diversity and stereotypy in the output of an olfactory functional unit” (Nature Communications, 2018).

Target: T1, M72 odorant receptor (olfr160) (Mus musculus, UniProt A1L3R1)
T1 construct: full-length native receptor in its own olfactory sensory neurons of gene-targeted M72-GFP mice (neonatal epithelium); GFP serves as cell marker
T1 sequence (A1L3R1 1-309): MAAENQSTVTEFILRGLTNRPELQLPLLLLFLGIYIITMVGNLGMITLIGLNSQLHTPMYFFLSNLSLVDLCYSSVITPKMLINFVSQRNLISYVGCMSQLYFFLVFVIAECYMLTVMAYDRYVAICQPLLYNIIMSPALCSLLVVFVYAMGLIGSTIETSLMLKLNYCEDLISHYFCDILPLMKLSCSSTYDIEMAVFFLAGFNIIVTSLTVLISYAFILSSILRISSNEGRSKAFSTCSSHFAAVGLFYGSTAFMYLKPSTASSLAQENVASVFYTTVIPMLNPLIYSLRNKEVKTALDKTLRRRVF
Assay: perforated patch clamp of dendritic knobs of M72-expressing OSNs, Hill fit
Format: cell-based
Details: 20-23 °C, pH 7.4; native OSNs; odorant from DMSO stock by pressure ejection; lower end of range, strongest ligand
Source text: perforated patch clamp of dendritic knobs of M72-expressing OSNs, Hill fit on M72 odorant receptor (olfr160) | 2HA is the strongest ligand yet identified for M72 | Normalized dose–response curves for seven M72 ligands fitted by the Hill equation

EC50: 30 nM
SMILES: CC(=O)c1ccccc1O [2HA, 2-hydroxyacetophenone]
